Values of other authors as cited in PMC7270110, “Labeled oxytocin administered via the intranasal route reaches the brain in rhesus macaques” (Nature Communications, 2020).
Several values for one entry are separate records, joined by “and”; a condition that tells them apart may be missing. Equal values may be shown once.

Assays:
[1] = nonhuman primate, cited from earlier work
Experimental: […] For IV administration, 1 ml was administered via a peripheral IV catheter. For IN administration, an IN Mucosal Atomization Device [MAD, Teleflex Medical, Research Triangle Park, NC] was used. This same device was used in our previous nonhuman primate study. […] Of not ...

[2] = 60 min, previous study, cited from earlier work
Experimental: This study has several limitations. The limit of quantification (100 pg/ml) and between subject variability for d5OT precluded comparisons of CSF concentrations of d5OT across routes of administration (IN vs. IV), or across time (60 vs. 120 min), for a given route. […] For example, mean plasma concentration of d5OT at 60 min in the IV condition was 1992 ± 476 pg/ml in the present study and 3306 ± 1162 pg/ml in the previous st ...

[3] = LOQ 10 pg/ml, cited from earlier work
Experimental: Further, at 60 min in the previous study, the CSF concentrations of d5OT after IN delivery of 80 IU were highly variable (11, 16, 67, and 221 pg/ml), and would have been detectable in only two of the monkeys using the a ... || page 8: 4. It is surprising that no CSF d5 OT was detected at 60 or 120 minutes in CSF after IN administration. […] In our previous study (Lee et al., Mol Psychiatry 2018), after IN administration, CSF d5OT concentration at 60 minutes was quantified in 4 monkeys as follows: 11.28, 15.99, 67.65 and 221.62 pg/ml. In this previous study, the limit of quantification (LOQ) for d5OT was 10 pg/ml. The LOQ of d5OT in the present study was 100 pg/ml and the method dete ...

Row | Compound | Concentration of CSF OT ([1]; IN administration of unlabeled OT with a different IN device) | CSF OT concentrations ([1]; OT 48 IU, MAD spray and nebulizer) | Plasma d5OT ([2]; 80 IU IN condition) [pg/mL] | Mean plasma concentration of d5OT ([2]; IV condition) [ng/mL] | CSF concentrations of d5OT ([3]; 60 min after IN delivery of 80 IU, individual monkeys, previous study) | CSF d5OT concentration ([3]; 60 minutes after IN administration, 4 individual monkeys, ref Lee et al., Mol Psychiatry 2018)
1 | CC[C@H](C)[C@@H]1NC(=O)[C@H](Cc2ccc(O)cc2)NC(=O)[C@@H](N)CSSC[C@@H](C(=O)N2CCC[C@H]2C(=O)N[C@@H](CC(C)C)C(=O)NCC(N)=O)NC(=O)[C@H](CC(N)=O)NC(=O)[C@H](CCC(N)=O)NC1=O [OT, oxytocin] | no increased concentration | significant elevations |  |  |  | 
2 | CC[C@H](C)[C@@H]1NC(=O)[C@H](Cc2ccc(O)cc2)NC(=O)[C@@H](N)CSSC[C@@H](C(=O)N2CCC[C@H]2C(=O)N[C@@H](CC(C)C)C(=O)NCC(N)=O)NC(=O)[C@H](CC(N)=O)NC(=O)[C@H](CCC(N)=O)NC1=O [d5OT] |  |  | 615 ± 474 | 3.306 ± 1.162 | 11 pg/mL and 16 pg/mL and 67 pg/mL and 221 pg/mL | 11.28 pg/mL and 15.99 pg/mL and 67.65 pg/mL and 221.62 pg/mL
